Results reported in US20130165641A1, “6,11-BRIDGED BIARYL MACROLIDES” (Enanta Pharmaceuticals, Inc., priority 2007, published 2013).
In brackets after ≈: the same amount, converted by molar mass.

Tested on: MRSA
Assay: MIC by micro-dilution method, MRSA isolates
Type: cell-based, Staphylococcus aureus
Conditions: compounds of Formula XVI; for MIC MRSA 7662: MRSA isolate 7662; for MIC MRSA 33591: MRSA isolate 33591
Experimental: Susceptibility tests can be used to quantitatively measure the in vitro activity of an antimicrobial agent against a given bacterial isolate. Compounds are tested for in vitro antibacterial activity by a micro-dilution method. Minimal Inhibitory Concentration (MIC) is determined in 96 well microtiter plates utilizing the appropriate broth medium for the observed bacterial isolates. […] The diluted compounds (2 μl/well) are then transferred into sterile, uninoculated medium (0.2 mL) by use of a 96 fixed tip-pipetting station. The inoculum for each bacterial strain is standardized to approximately 5×10^5 CFU/mL by optical comparison to a 0.5 McFarland turbidity standard. The plates are inoculated with 10 μl/well of adjusted bacterial inoculum. The 96 well plates are covered and incubated at 35+/−2° C. for 24 hours in ambient air environment. Following incubation, plate wells are visually examined by Optical Density measurement for the presence of growth (turbidity). The lowest concentration of an antimicrobial agent at which no visible growth occurs is defined as the MIC.
All in vitro testing follows the guidelines described in the Approved Standards M7-A7 protocol, published by the Clinical Laboratory Standards Institute (CLSI).

For `CC[C@H]1OC(=O)[C@@](C)(F)C(=O)[C@H](C)[C@@H](O[C@@H]2O[C@H](C)C[C@H](N(C)C)[C@H]2O)[C@@]2(C)C[C@@H](C)C(=NC(=O)C(C)C)[C@H](C)[C@@H](OC/C(=N\OCc3ccc(-n4ccc(N)n4)cc3Cl)CO2)[C@]1(C)O` [Example 116], the “MIC MRSA 7662” value was 4 µg/mL (≈ 4.28 µM) and the “MIC MRSA 33591” value was 4 µg/mL (≈ 4.28 µM).
With `CCC(=O)N=C1[C@H](C)C[C@@]2(C)OC/C(=N/OCc3ccc(-c4nsc(N)n4)cn3)CO[C@H]([C@H]1C)[C@](C)(O)[C@@H](CC)OC(=O)[C@@](C)(F)C(=O)[C@H](C)[C@H]2O[C@@H]1O[C@H](C)C[C@H](N(C)C)[C@H]1O` [Example 123] the “MIC MRSA 7662” value was 4 µg/mL (≈ 4.41 µM) and the “MIC MRSA 33591” value was 4 µg/mL (≈ 4.41 µM).
For `CCC1OC(=O)C(C)C(=O)C(C)C(OC2OC(C)CC(N(C)C)C2O)C2(C)CC(C)C(=NC(C)=O)C(C)C(OCC(=NOCc3ccc(-n4ccc(N)n4)cc3Cl)CO2)C1(C)O` (stereo not drawn) [Example 88], the “MIC MRSA 7662” value was 8 µg/mL (≈ 8.99 µM) and the “MIC MRSA 33591” value was 8 µg/mL (≈ 8.99 µM).
`CC[C@H]1OC(=O)[C@@](C)(F)C(=O)[C@H](C)[C@@H](O[C@@H]2O[C@H](C)C[C@H](N(C)C)[C@H]2O)[C@@]2(C)C[C@@H](C)C(=NC(=O)C(C)C)[C@H](C)[C@@H](OC/C(=N\OCc3csc(-c4cccc(N)n4)n3)CO2)[C@]1(C)O` [Example 137] was tested, and the “MIC MRSA 7662” value was 1.00 µg/mL (≈ 1.09 µM) and the “MIC MRSA 33591” value was 2.00 µg/mL (≈ 2.18 µM).
With `CCC(=O)N=C1C(C)CC2(C)OCC(=NOCc3ccc(-n4ccc(N)n4)nc3)COC(C1C)C(C)(O)C(CC)OC(=O)C(C)(F)C(=O)C(C)C2OC1OC(C)CC(N(C)C)C1O` (stereo not drawn) [Example 79] the “MIC MRSA 7662” value was 2 µg/mL (≈ 2.25 µM) and the “MIC MRSA 33591” value was 4 µg/mL (≈ 4.5 µM).
`CCC(=O)N=C1[C@H](C)C[C@@]2(C)OC/C(=N/OCc3cnc(-c4cccc(N)n4)s3)CO[C@H]([C@H]1C)[C@](C)(O)[C@@H](CC)OC(=O)[C@@](C)(F)C(=O)[C@H](C)[C@H]2O[C@@H]1O[C@H](C)C[C@H](N(C)C)[C@H]1O` [Example 117] was tested, and the “MIC MRSA 7662” value was 2 µg/mL (≈ 2.21 µM) and the “MIC MRSA 33591” value was 4 µg/mL (≈ 4.42 µM).
With `CC[C@H]1OC(=O)[C@@](C)(F)C(=O)[C@H](C)[C@@H](O[C@@H]2O[C@H](C)C[C@H](N(C)C)[C@H]2O)[C@@]2(C)C[C@@H](C)C(=NC(C)=O)[C@H](C)[C@@H](OC/C(=N\OCc3ccc(-c4csc(N)n4)cn3)CO2)[C@]1(C)O` [Example 104] the “MIC MRSA 7662” value was 8 µg/mL (≈ 8.98 µM) and the “MIC MRSA 33591” value was 8 µg/mL (≈ 8.98 µM).
With `CCC(=O)N=C1[C@H](C)C[C@@]2(C)OC/C(=N/OCc3ccc(-c4nc(N)cs4)nc3)CO[C@H]([C@H]1C)[C@](C)(O)[C@@H](CC)OC(=O)[C@@](C)(F)C(=O)[C@H](C)[C@H]2O[C@@H]1O[C@H](C)C[C@H](N(C)C)[C@H]1O` [Example 128] the “MIC MRSA 7662” value was 4.00 µg/mL (≈ 4.42 µM) and the “MIC MRSA 33591” value was 8.00 µg/mL (≈ 8.84 µM).
For `CCC1OC(=O)C(C)(F)C(=O)C(C)C(OC2OC(C)CC(N(C)C)C2O)C2(C)CC(C)C(=NC(C)=O)C(C)C(OCC(=NOCc3ccc(-n4ccc(N)n4)cc3Cl)CO2)C1(C)O` (stereo not drawn) [Example 89], the “MIC MRSA 7662” value was 4 µg/mL (≈ 4.41 µM) and the “MIC MRSA 33591” value was 4 µg/mL (≈ 4.41 µM).
`CCC1OC(=O)C(C)(F)C(=O)C(C)C(OC2OC(C)CC(N(C)C)C2O)C2(C)CC(C)C(=NC(C)=O)C(C)C(OCC(=NOCc3cnc(-c4cccc(N)n4)s3)CO2)C1(C)O` (stereo not drawn) [Example 97] was tested, and the “MIC MRSA 7662” value was 8 µg/mL (≈ 8.98 µM) and the “MIC MRSA 33591” value was 8 µg/mL (≈ 8.98 µM).
`CCC(=O)N=C1[C@H](C)C[C@@]2(C)OC/C(=N/OCc3ccc(-c4csc(N)n4)cc3)CO[C@H]([C@H]1C)[C@](C)(O)[C@@H](CC)OC(=O)[C@@](C)(F)C(=O)[C@H](C)[C@H]2O[C@@H]1O[C@H](C)C[C@H](N(C)C)[C@H]1O` [Example 122] was tested, and the “MIC MRSA 7662” value was 4.00 µg/mL (≈ 4.42 µM) and the “MIC MRSA 33591” value was 4.00 µg/mL (≈ 4.42 µM).
`CCC(=O)N=C1[C@H](C)C[C@@]2(C)OC/C(=N/OCc3ccc(-c4nc(N)cs4)cn3)CO[C@H]([C@H]1C)[C@](C)(O)[C@@H](CC)OC(=O)[C@H](C)C(=O)[C@H](C)[C@H]2O[C@@H]1O[C@H](C)C[C@H](N(C)C)[C@H]1O` [Example 119] was tested, and the “MIC MRSA 7662” value was 4 µg/mL (≈ 4.51 µM) and the “MIC MRSA 33591” value was 8 µg/mL (≈ 9.02 µM).
`CC[C@H]1OC(=O)[C@H](C)C(=O)[C@H](C)[C@@H](O[C@@H]2O[C@H](C)C[C@H](N(C)C)[C@H]2O)[C@@]2(C)C[C@@H](C)C(=NC(C)=O)[C@H](C)[C@@H](OC/C(=N\OCc3ccc(-c4nc(N)cs4)cn3)CO2)[C@]1(C)O` [Example 108] was tested, and the “MIC MRSA 7662” value was 8 µg/mL (≈ 9.16 µM) and the “MIC MRSA 33591” value was 8 µg/mL (≈ 9.16 µM).
`CCC1OC(=O)C(C)(F)C(=O)C(C)C(OC2OC(C)CC(N(C)C)C2O)C2(C)CC(C)C(=NC(C)=O)C(C)C(OCC(=NOCc3ccc(-n4ccc(N)n4)cc3)CO2)C1(C)O` (stereo not drawn) [Example 81] was tested, and the “MIC MRSA 7662” value was 4 µg/mL (≈ 4.58 µM) and the “MIC MRSA 33591” value was 4 µg/mL (≈ 4.58 µM).
For `CC[C@H]1OC(=O)[C@@](C)(F)C(=O)[C@H](C)[C@@H](O[C@@H]2O[C@H](C)C[C@H](N(C)C)[C@H]2O)[C@@]2(C)C[C@@H](C)C(=NC(C)=O)[C@H](C)[C@@H](OC/C(=N\OCc3ccc(-n4ccc(N)n4)cc3OC)CO2)[C@]1(C)O` [Example 99], the “MIC MRSA 7662” value was 8 µg/mL (≈ 8.86 µM) and the “MIC MRSA 33591” value was 8 µg/mL (≈ 8.86 µM).
